Experimental data reported in US10597388B2, “Pyridazinone herbicides” (FMC CORPORATION, priority 2014, dated 2020).

Experiments:
Assay type in all cases: in vivo
[1] = system: oat, wild (wild oat, Avena fatua); experiment: Test C greenhouse herbicide test, postemergence
Summary of the method: (§1)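 Steps: pot plants in peat-based medium; spray postemergence at 1- to 4-leaf stage; hold in greenhouse 13 to 15 d; score visually against controls from 0 (no effect) to 100 (complete control).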

kochia (Kochia scoparia) = experiment: Test C greenhouse herbicide test, postemergence
Summary of the method: as §1

[2] = system: crabgrass, large (large crabgrass, Digitaria sanguinalis); experiment: Test C greenhouse herbicide test, pre- and postemergence
Text: (§2) Seeds of plant species selected from blackgrass (Alopecurus myosuroides), ryegrass, Italian (Italian ryegrass, Lolium multiflorum), wheat (winter wheat, Triticum aestivum), galium (catchweed bedstraw, Galium aparine), corn (Zea mays), large crabgrass, large (large crabgrass, Digitaria sanguinalis), foxtail, giant (giant foxtail, Setaria faberii), johnsongrass (Sorghum halepense), lambsquarters (Chenopodium album), morningglory (Ipomoea coccinea), nutsedge, yellow (yellow nutsedge, Cyperus esculentus), pigweed (Amaranthus retroflexus), ragweed (common ragweed, Ambrosia elatior), soybean (Glycine max), barnyardgrass (Echinochloa crus-galli), oilseed rape (Brassica napus), waterhemp (common waterhemp, Amaranthus rudis), and velvetleaf (Abutilon theophrasti) were planted into a blend of loam soil and sand and treated preemergence with test chemicals formulated in a non-phytotoxic solvent mixture which included a surfactant.
(§3) At the same time, plants selected from these crop and weed species and also chickweed (common chickweed, Stellaria media), kochia (Kochia scoparia), and oat, wild (wild oat, Avena fatua), were planted in pots containing Redi-Earth® planting medium (Scotts Company, 14111 Scottslawn Road, Marysville, Ohio 43041) comprising spaghnum peat moss, vermiculite, wetting agent and starter nutrients and treated with postemergence applications of test chemicals formulated in the same manner. Plants ranged in height from 2 to 18 cm (1- to 4-leaf stage) for postemergence treatments. Treated plants and controls were maintained in a greenhouse for 13 to 15 d, after which time all species were compared to controls and visually evaluated. Plant response ratings, summarized in Table C, are based on a scale of 0 to 100 where 0 is no effect and 100 is complete control. A dash (-) response means no test result.

[3] = system: lambsquarters (Chenopodium album); experiment: as above
Text: as §2, §3

[4] = system: ryegrass, Italian (Italian ryegrass, Lolium multiflorum); experiment: as above
Text: as §2, §3

[5] = system: waterhemp (common waterhemp, Amaranthus rudis); experiment: as above
Text: as §2, §3

[6] = system: pigweed (Amaranthus retroflexus); experiment: as above
Text: as §2, §3

[7] = system: johnsongrass (Sorghum halepense); experiment: as above
Text: as §2, §3

corn (Zea mays) = experiment: as above
Text: as §2, §3

[8] = system: morningglory (Ipomoea coccinea); experiment: as above
Text: as §2, §3

[9] = system: oilseed rape (Brassica napus); experiment: as above
Text: as §2, §3

[10] = system: foxtail, giant (giant foxtail, Setaria faberii); experiment: as above
Text: as §2, §3

soybean (Glycine max) = experiment: as above
Text: as §2, §3

[11] = system: velvetleaf (Abutilon theophrasti); experiment: as above
Text: as §2, §3

[12] = system: blackgrass (Alopecurus myosuroides); experiment: as above
Text: as §2, §3

[13] = system: ragweed (common ragweed, Ambrosia elatior); experiment: as above
Text: as §2, §3

[14] = Postemergence, 31 g ai/ha, 0 to 100 scale (0 no effect, 100 complete control)
[15] = Postemergence, 125 g ai/ha, scale 0 to 100, 0 is no effect, 100 is complete control
[16] = Postemergence, 250 g ai/ha, scale 0 to 100, 0 no effect, 100 complete control, 13 to 15 d
[17] = postemergence, 62 g ai/ha, scale 0 to 100, 0 no effect, 100 complete control

CC(=O)Oc1c(C)nn(C)c(=O)c1-c1c(C)oc2c(C)cc(C)cc12 [Compound 16, 5-(acetyloxy)-2,6-dimethyl-4-(2,5,7-trimethyl-3-benzofuranyl)-3(2H)-pyridazinone]
Oat, Wild plant response rating [1, 14]: 5 | Plant response rating, Oat, Wild [1, 15]: 10 | Plant response rating, Oat, Wild [1, 16]: 40 | Oat, Wild plant response rating [1, 17]: 5 | Kochia plant response rating (kochia (Kochia scoparia); [14]): 0 | Plant response rating, Kochia (kochia (Kochia scoparia); [15]): 20 | Plant response rating, Kochia (kochia (Kochia scoparia); [16]): 25 | Kochia plant response rating (kochia (Kochia scoparia); [17]): 0 | Crabgrass, Large plant response rating [2, 14]: 5 | Plant response rating, Crabgrass, Large [2, 15]: 20 | Plant response rating, Crabgrass, Large [2, 16]: 30 | Crabgrass, Large plant response rating [2, 17]: 20 | Lambsquarters plant response rating [3, 14]: 10 | Plant response rating, Lambsquarters [3, 15]: 40 | Plant response rating, Lambsquarters [3, 16]: 20 | Lambsquarters plant response rating [3, 17]: 60 | Ryegrass, Italian plant response rating [4, 14]: 10 | Plant response rating, Ryegrass, Italian [4, 15]: 60 | Plant response rating, Ryegrass, Italian [4, 16]: 70 | Ryegrass, Italian plant response rating [4, 17]: 50 | Waterhemp plant response rating [5, 14]: 5 | Plant response rating, Waterhemp [5, 15]: 5 | Plant response rating, Waterhemp [5, 16]: 5 | Waterhemp plant response rating [5, 17]: 5 | Pigweed plant response rating [6, 14]: 40 | Plant response rating, Pigweed [6, 15]: 30 | Plant response rating, Pigweed [6, 16]: 50 | Pigweed plant response rating [6, 17]: 30 | Johnsongrass plant response rating [7, 14]: 0 | Plant response rating, Johnsongrass [7, 15]: 0 | Plant response rating, Johnsongrass [7, 16]: 5 | Johnsongrass plant response rating [7, 17]: 0 | Corn plant response rating (corn (Zea mays); [14]): 0 | Plant response rating, Corn (corn (Zea mays); [15]): 0 | Plant response rating, Corn (corn (Zea mays); [16]): 0 | Corn plant response rating (corn (Zea mays); [17]): 0 | Morningglory plant response rating [8, 14]: 45 | Plant response rating, Morningglory [8, 15]: 60 | Plant response rating, Morningglory [8, 16]: 40 | Morningglory plant response rating [8, 17]: 50 | Oilseed Rape plant response rating [9, 14]: 0 | Plant response rating, Oilseed Rape [9, 15]: 10 | Plant response rating, Oilseed Rape [9, 16]: 0 | Oilseed Rape plant response rating [9, 17]: 0 | Foxtail, Giant plant response rating [10, 14]: 55 | Plant response rating, Foxtail, Giant [10, 15]: 70 | Plant response rating, Foxtail, Giant [10, 16]: 80 | Foxtail, Giant plant response rating [10, 17]: 60 | Soybean plant response rating (soybean (Glycine max); [14]): 0 | Plant response rating, Soybean (soybean (Glycine max); [15]): 0 | Plant response rating, Soybean (soybean (Glycine max); [16]): 0 | Soybean plant response rating (soybean (Glycine max); [17]): 0 | Velvetleaf plant response rating [11, 14]: 5 | Plant response rating, Velvetleaf [11, 15]: 20 | Plant response rating, Velvetleaf [11, 16]: 35 | Velvetleaf plant response rating [11, 17]: 5 | Blackgrass plant response rating [12, 14]: 0 | Plant response rating, Blackgrass [12, 15]: 5 | Plant response rating, Blackgrass [12, 16]: 40 | Blackgrass plant response rating [12, 17]: 5 | Ragweed plant response rating [13, 14]: 0 | Plant response rating, Ragweed [13, 15]: 0 | Plant response rating, Ragweed [13, 16]: 30 | Ragweed plant response rating [13, 17]: 0
